Results as given in patent US8551999B2, “Heterocyclic compound and pharmaceutical composition thereof” (Otsuka Pharmaceutical Co., Ltd., priority 2007, dated 2013).

| Structure (SMILES) | melting point |
| --- | --- |
| Br.Br.Cc1cc(Oc2ccc3c(c2)cc(C(=O)N2CCN(Cc4cccnc4)CC2)n3C)ncc1NC(=O)c1ccc(C(F)(F)F)cc1 [Example 404, N-{4-Methyl-6-[1-methyl-2-(4-pyridin-3-ylmethylpiperazine-1-carbonyl)-1H-indol-5-yloxy]pyridin-3-yl}-4-trifluoromethyl-benzamide dihydrobromide] | 215 to 217 °C |
| CN(C(=O)c1ccc(C(F)(F)F)cc1)c1cnc(Oc2ccc3c(c2)cc(C(=O)N2CCN(Cc4ccc(C#N)cc4)CC2)n3C)nc1.O=C(O)/C=C\C(=O)O [Example 383, N-(2-{2-[4-(4-Cyanobenzyl)piperazine-1-carbonyl]-1-methyl-1H-indol-5-yloxy}pyrimidin-5-yl)-N-methyl-4-trifluoromethylbenzamide maleate] | 154 to 156 °C |
| Br.COc1cccc(CN2CCN(C(=O)c3cc4cc(Oc5ccc(NC(=O)c6ccc(C(F)(F)F)cc6)cn5)ccc4n3C)CC2)c1 [Example 353, N-(6-{2-[4-(3-Methoxybenzyl)piperazine-1-carbonyl]-1-methyl-1H-indol-5-yloxy}pyridin-3-yl)-4-trifluoromethylbenzamide hydrobromide] | 231 to 233 °C |
| CN(C(=O)c1ccc(C(F)(F)F)cc1)c1ccc(Oc2ccc3c(c2)cc(C(=O)N2CCN(Cc4ccc5c(c4)OC(F)(F)O5)CC2)n3C)nc1.O=C(O)C(=O)O [Example 439, N-(6-{2-[4-(2,2-Difluorobenzo[1,3]dioxol-5-ylmethyl)piperazine-1-carbonyl]-1-methyl-1H-indol-5-yloxy}pyridin-3-yl)-N-methyl-4-tri-fluoromethylbenzamide oxalate] | 155.7 to 156.9 °C |
| Br.Cn1c(C(=O)N2CCN(Cc3ccc4c(c3)OCO4)CC2)cc2cc(Oc3ccc(NS(=O)(=O)c4ccc(C(F)(F)F)cc4)cn3)ccc21 [Example 65, N-{6-[2-(4-Benzo[1,3]dioxol-5-ylmethylpiperazine-1-carbonyl)-1-methyl-1H-indol-5-yloxy]pyridin-3-yl}-4-trifluoromethylbenzene-sulfonamide hydrobromide] | 210 to 212 °C |
| Br.COc1ccc(CN2CCN(C(=O)c3cc4cc(Oc5ccc(NC(=O)c6ccc(OC(F)(F)F)cc6)cn5)ccc4n3C)CC2)cc1 [Example 17, N-(6-{2-[4-(4-Methoxybenzyl)piperazine-1-carbonyl]-1-methyl-1H-indol-5-yloxy}pyridin-3-yl)-4-trifluoromethoxybenzamide hydrobromide] | 226 to 227 °C |
| Br.CN(C(=O)/C=C/c1cc(F)cc(F)c1)c1ccc(Oc2ccc3c(c2)cc(C(=O)N2CCN(Cc4ccc5c(c4)OCO5)CC2)n3C)nc1 [Example 12, (E)-N-{6-[2-(4-Benzo[1,3]dioxol-5-ylmethylpiperazine-1-carbonyl)-1-methyl-1H-indol-5-yloxy]pyridin-3-yl}-3-(3,5-difluorophenyl)-N-methylacrylamide hydrobromide] | 176 to 178 °C |
| CCCOc1ccc(CN2CCN(C(=O)c3cc4ccc(Oc5ccc(N(C)C(=O)c6ccc(OC(F)F)cc6)cn5)cc4n3C)CC2)cc1.Cl | 226.9 to 229 °C |
| Cn1c(C(=O)N2CCN(Cc3ccc4c(c3)OCO4)CC2)cc2cc(Oc3ccc(NC(=O)c4ccc(-n5cccc5)nc4)cn3)ccc21 [Example 225, N-{6-[2-(4-Benzo[1,3]dioxol-5-ylmethylpiperazine-1-carbonyl)-1-methyl-1H-indol-5-yloxy]pyridin-3-yl}-6-pyrrol-1-ylnicotinamide] | 155 to 158 °C |
| Br.COc1ccc(CN2CCN(C(=O)c3cc4cc(Oc5ccc(NC(=O)c6ccc(C(F)(F)F)cc6)cn5)ccc4n3C)CC2)cc1OC [Example 350, N-(6-{2-[4-(3,4-Dimethoxybenzyl)piperazine-1-carbonyl]-1-methyl-1H-indol-5-yloxy}pyridin-3-yl)-4-trifluoromethylbenzamide hydrobromide] | 233 to 235 °C |
| Cc1ccc(S(=O)(=O)N(C)c2ccc(Oc3ccc4cc(C(=O)N5CCN(Cc6ccc(OC(CF)CF)cc6)CC5)n(C)c4c3)nc2)cc1 [Example 523, N-[6-(2-{4-[4-(2-Fluoro-1-fluoromethylethoxy)benzyl]piperazine-1-carbonyl}-1-methyl-1H-indol-6-yloxy)pyridin-3-yl]-4,N-dimethyl-benzenesulfonamide] | 116.5 to 116.6 °C |
| Br.CN(C(=O)c1ccc(C(F)(F)F)cc1Cl)c1ccc(Oc2ccc3cc(C(=O)N4CCN(Cc5ccc(OCCF)cc5)CC4)n(C)c3c2)nc1 [Example 447, 2-Chloro-N-[6-(2-{4-[4-(2-fluoroethoxy)benzyl]piperazine-1-carbonyl}-1-methyl-1H-indol-6-yloxy)pyridin-3-yl]-N-methyl-4-tri-fluoromethylbenzamide hydrobromide] | 223.6 to 225.4 °C |
| CS(=O)(=O)O.CS(=O)(=O)O.Cn1c(C(=O)N2CCN(Cc3ccccn3)CC2)cc2cc(Oc3ccc(NC(=O)c4ccc(C(F)(F)F)cc4)cn3)ccc21 [Example 560, N-{6-[1-Methyl-2-(4-pyridin-2-ylmethylpiperazine-1-carbonyl)-1H-indol-5-yloxy]pyridin-3-yl}-4-trifluoromethylbenzamide bismethanesulfonate] | 137 to 139 °C |
| Br.Cc1cc(Oc2ccc3cc(C(=O)N4CCN(Cc5ccc(OCC(F)(F)F)cc5)CC4)n(C)c3c2)ncc1N(C)S(C)(=O)=O [Example 78, N-Methyl-N-[4-methyl-6-(1-methyl-2-{4-[4-(2,2,2-trifluoroethoxy)-benzyl]piperazine-1-carbonyl}-1H-indol-6-yloxy)pyridin-3-yl]-methanesulfonamide hydrobromide] | 235.8 to 237.8 °C |
| Br.CN(C(=O)c1ccc(Cl)c(Cl)c1)c1ccc(Oc2ccc3cc(C(=O)N4CCN(Cc5ccc(OCC(F)F)cc5)CC4)n(C)c3c2)nc1 [Example 483, 3,4-Dichloro-N-[6-(2-{4-[4-(2,2-difluoroethoxy)benzyl]piperazine-1-carbonyl}-1-methyl-1H-indol-6-yloxy)pyridin-3-yl]-N-methyl-benzamide hydrobromide] | 182.4 to 184.6 °C |
| COc1ccc(CN2CCN(C(=O)c3cc4cc(Oc5ccc(NC(=O)c6ccc(-n7cccc7)nc6)cn5)ccc4n3C)CC2)cc1 [Example 226, N-(6-{2-[4-(4-Methoxybenzyl)piperazine-1-carbonyl]-1-methyl-1H-indol-5-yloxy}pyridin-3-yl)-6-pyrrol-1-ylnicotinamide] | 194 to 195 °C |
| Cl.Cn1c(C(=O)N2CCN(Cc3ccc(OC(F)F)cc3)CC2)cc2ccc(Oc3ccc(NC(=O)c4ccc(OC(F)(F)F)cc4)cn3)cc21 | 256.2 to 256.5 °C |
| COc1ccc(C(=O)N2CCN(C(=O)c3cc4cc(Oc5ccc(NC(=O)c6ccc(C(F)(F)F)cc6)cn5)ccc4n3C)CC2)cc1 [Example 240, N-(6-{2-[4-(4-Methoxybenzoyl)piperazine-1-carbonyl]-1-methyl-1H-indol-5-yloxy}pyridin-3-yl)-4-trifluoromethylbenzamide] | 195 to 196 °C |
| Br.Br.Cn1c(C(=O)N2CCN(Cc3ccccn3)CC2)cc2cc(Oc3ccc(NC(=O)c4ccc(Cl)c(Cl)c4)cn3)ccc21 [Example 564, 3,4-Dichloro-N-{6-[1-methyl-2-(4-pyridin-2-ylmethylpiperazine-1-carbonyl)-1H-indol-5-yloxy]pyridin-3-yl}benzamide dihydrobromide] | 231 to 233 °C (dec.) |
| Br.Cn1c(C(=O)N2CCN(Cc3ccc4c(c3)OC(F)(F)O4)CC2)cc2ccc(Oc3ccc(NC(=O)c4ccc(Cl)c(Cl)c4)cn3)cc21 [Example 467, 3,4-Dichloro-N-(6-{2-[4-(2,2-difluorobenzo[1,3]dioxol-5-yl-methyl)piperazine-1-carbonyl]-1-methyl-1H-indol-6-yloxy}pyridin-3-yl)benzamide hydrobromide] | 253 to 254.8 °C |
| Cl.Cn1c(C(=O)N2CCN(Cc3ccc(OCC(F)F)cc3)CC2)cc2ccc(Oc3ncc(NC(=O)c4ccc(C(F)(F)F)cc4)cn3)cc21 | 251.4 to 253.5 °C |
| CN(C(=O)Nc1ccc(Cl)c(Cl)c1)c1ccc(Oc2ccc3c(c2)cc(C(=O)N2CCN(Cc4ccc5c(c4)OCO5)CC2)n3C)nc1.Cl | 240 to 243 °C |
| Cc1ccc(S(=O)(=O)N(C)c2ccc(Oc3ccc4cc(C(=O)N5CCN(Cc6ccc(OCC7CC7)cc6)CC5)n(C)c4c3)nc2)cc1 [Example 530, N-(6-{2-[4-(4-Cyclopropylmethoxybenzyl)piperazine-1-carbonyl]-1-methyl-1H-indol-6-yloxy}pyridin-3-yl)-4,N-dimethylbenzene-sulfonamide] | 135.6 to 138.6 °C |
| Br.COCc1ccc(CN2CCN(C(=O)c3cc4ccc(Oc5ccc(NC(=O)c6ccc(Cl)c(Cl)c6)cn5)cc4n3C)CC2)cc1 [Example 259, 3,4-Dichloro-N-(6-{2-[4-(4-methoxymethylbenzyl)piperazine-1-carbonyl]-1-methyl-1H-indol-6-yloxy}pyridin-3-yl)benzamide hydrobromide] | 243.6 to 247.7 °C |
| COc1ccccc1CN1CCN(C(=O)c2cc3cc(Oc4ccc(NC(=O)c5ccc(C(F)(F)F)cc5)cn4)ccc3n2C)CC1.O=C(O)C(=O)O [Example 354, N-(6-{2-[4-(2-Methoxybenzyl)piperazine-1-carbonyl]-1-methyl-1H-indol-5-yloxy}pyridin-3-yl)-4-trifluoromethylbenzamide oxalate] | 142 to 144 °C |
| CC(C)S(=O)(=O)N(C)c1ccc(Oc2ccc3cc(C(=O)N4CCN(Cc5ccc(OCC(F)(F)F)cc5)CC4)n(C)c3c2)nc1.Cl | 256.5 to 259.8 °C |
| Br.CC(C)Oc1ccc(CN2CCN(C(=O)c3cc4ccc(Oc5ccc(NC(=O)c6ccc(Cl)c(Cl)c6)cn5)cc4n3C)CC2)cc1F [Example 266, 3,4-Dichloro-N-(6-{2-[4-(3-fluoro-4-isopropoxybenzyl)piperazine-1-carbonyl]-1-methyl-1H-indol-6-yloxy}pyridin-3-yl)benzamide hydrobromide] | 244.3 to 247 °C |
| Br.Cc1ccc(S(=O)(=O)N(C)c2ccc(Oc3ccc4cc(C(=O)N5CCN(Cc6ccc(OC(F)F)cc6)CC5)n(C)c4c3)nc2)cc1 [Example 532, N-(6-{2-[4-(4-Difluoromethoxybenzyl)piperazine-1-carbonyl]-1-methyl-1H-indol-6-yloxy}pyridin-3-yl)-4,N-dimethylbenzene-sulfonamide hydrobromide] | 214.5 to 218.5 °C (dec.) |
